The source of these data is US20080020368A1, “Method and apparatus for exposing cells to different concentrations of analytes or drugs” (priority 2006, published 2008).

This test deals with HL60 cells. In words: On-chip TMR study: laser-enhanced TMR fluorescence response of docked cells in tapered microchannel device. It counts as cell-based. The note with it: Homo sapiens, HL-60, light or radiation study; HL60 cells docked on upper sandbag, on-chip serial dilution of TMR, fast Helium-Neon laser irradiation (~70 ms/ROI) for 3 more minutes; 50% intensity; read-out: EC50 of TMR concentration required to trigger the enhanced fluorescence response. An excerpt: It was the highly compact design of this microdevice that facilitated the comparative study between large amounts of cells on two sandbag components. […] However, only a region of interest (ROI) on the upper sandbag was subjected to fast laser irradiation (˜70 ms/ROI of Helium-Neon laser) for 3 more minutes. A confocal image of both sandbags after the fast irradiation was developed.
Furthermore, despite the large ROI coverage over the upper sandbag, the enhanced response was evidenced for the cells incubated at higher TMR concentration near the sandbag rear. Therefore, the conclusion is that the enhanced response was at least related to 1) concentration of TMR and 2) the amount of laser irradiation.
Referring to FIG. 30, photomicrographs are shown one on top of the other, with the top photomicrograph showing cells docked on both sandbags but only those encircled by the black dotted framework are subjected to laser irradiation. […] The purpose of these photomicrographs is to show the power of the microchip to perform rapid analysis and retrieve effective concentration of a photodynamic therapy drug candidate that is sensitive to light irradiation.
The response profiles of cells docked on the upper and lower sandbags of FIG. 30 are plotted in FIG. 31. […] Note further that there is an average peak in intensity at a 3.73 μM at 50% intensity. […]

Turning to `CN(C)c1ccc2c(-c3ccc(CCl)cc3)c3ccc(=[N+](C)C)cc-3oc2c1` [TMR, Tetramethylrosamine], the EC50 came out at 3.73 µM.
